Measured values as given in patent publication US20090074815A1, “Immunomodulator Compounds as Vaccine Enhancers” (SCICLONE PHARMACEUTICALS, INC., priority 2005, published 2009).

How the values were obtained:
[1] = test system: leukocytes and lymphocytes in peripheral blood; assay: Concentration of leukocytes and lymphocytes in peripheral blood before and after vaccination; type: in vivo, human; conditions: After vaccination
[2] = test system: thymic cells; assay: ConA-induced proliferation of thymic cells (3H-thymidine uptake); type: in vivo, mice
Excerpt: Materials and Methods: Eighteen (18) to twenty (20) gram (g) male mice, purchased from the Rappolovo Animal Facility, Russia, were used in the studies described below. C57BL/6 (B6) mice were used to evaluate the effect of SCV-07 in non-immunized mice. CBAxC57BL/6 (F1) mice were used for studies of the effects of SCV-07 on the antigen-specific immune response. Mice were kept under the standard animal facility conditions and were provided with a standard diet and water ad libitum. Each treatment group included 4-5 mice. […] A suspension containing filling agents alone, which corresponded to the maximum amount of filling agents in the doses of SCV-07 administered to experimental animals, was used a control. […] Assessment of Mitogen- and Antigen-Induced Proliferation: […] Antigen-specific proliferation was studied by stimulating thymocytes and splenoctyes in vitro with different concentrations of OvA for 96 h. Twenty (20) to twenty-four (24) hours prior to completion of incubation, 3H-labeled thymidine (5 μCi/ml) was added to the cells. The cells were then transferred to fiberglass filters with a Titertek® semi-automatic cell harvester. Thymidine uptake was measured using a RackBeta 1217 (Wallac) liquid scintillation β-counter. For quantitative analysis of proliferation, the stimulation index (SI) was calculated as a ratio of the intensity of label inclusion in the stimulated cells to that in non-stimulated cells.

[3] = test system: thymic cells; assay: Expression of T-cell subpopulation and activation markers (CD69, CD25) on thymic cells, flow cytometry; type: in vivo, mice; conditions: for CD25-positive cells, % / CD69-positive, %: thymic cells cultured in vitro 48 hours
Excerpt: Materials and Methods: Eighteen (18) to twenty (20) gram (g) male mice, purchased from the Rappolovo Animal Facility, Russia, were used in the studies described below. C57BL/6 (B6) mice were used to evaluate the effect of SCV-07 in non-immunized mice. CBAxC57BL/6 (F1) mice were used for studies of the effects of SCV-07 on the antigen-specific immune response. Mice were kept under the standard animal facility conditions and were provided with a standard diet and water ad libitum. Each treatment group included 4-5 mice. […] Analysis by Flow Cytometry: […] The expression of T-cell subpopulation markers (CD3, CD4, and CD8) and activation markers (CD69 and CD25) on thymic cells and splenocytes was studied ex vivo 72 hours after the last treatment with SCV-07. […] The expression of the CD69 marker increased after oral administration of SCV-07 tablets at doses of 0.1 and 1.0 μg/kg of body mass as well as after i/p administration at a dose of 1.0 μg/kg.

[4] = Patients of group 2 (SCV-07 + vaccine)
[5] = thymic cells, ConA 1 μg/ml, 0.01 μg/kg Tablet, per os
[6] = thymic cells, ConA 1 μg/ml, 0.01 μg/kg per os
[7] = thymic cells, ConA 1 μg/ml, 0.1 μg/kg Tablet, per os
[8] = thymic cells, ConA 1 μg/ml, 0.1 μg/kg i/p, Table 4
[9] = thymic cells, ConA 1 μg/ml, 0.1 μg/kg i/p, Table 5
[10] = thymic cells, ConA 1 μg/ml, 0.1 μg/kg per os
[11] = thymic cells, ConA 1 μg/ml, 1.0 μg/kg Tablet, per os
[12] = thymic cells, ConA 1 μg/ml, 1.0 μg/kg i/p, Table 4
[13] = thymic cells, ConA 1 μg/ml, 1.0 μg/kg i/p, Table 5
[14] = thymic cells, ConA 1 μg/ml, 1.0 μg/kg per os
[15] = thymic cells, ConA 1 μg/ml, 10.0 μg/kg Tablet, per os
[16] = thymic cells, ConA 1 μg/ml, 10.0 μg/kg per os
[17] = thymic cells, ConA 1 μg/ml, 100.0 μg/kg per os

N[C@H](CCC(=O)N[C@@H](Cc1c[nH]c2ccccc12)C(=O)O)C(=O)O [SCV-07, γ-D-glutamyl-L-tryptophan]
Leukocytes × 10^9/l ([1]; Healthy subjects (Group III)): 6.04 ± 0.31 10^9/l | Lymphocytes % ([1]; Healthy subjects (Group III)): 19.05 ± 1.13% | Lymphocytes × 10^9/l ([1]; Healthy subjects (Group III)): 1.19 ± 0.11 10^9/l | Lymphocytes % [1, 4]: 27.81 ± 2.04% | Lymphocytes × 10^9/l [1, 4]: 1.608 ± 0.096 10^9/l | Leukocytes × 10^9/l ([1]; Patients of group 2 (infectious syndrome, SCV-07 1 mg i.m. + hepatitis B vaccine)): 5.938 ± 0.351 10^9/l | minimal dose of SCV-07 given as a crushed tablet which caused significant enhancement of proliferation ([2]; crushed tablet per os, ConA 1 μg/ml): 0.1 µg/kg | minimal SCV-07 dose which caused significant increase in proliferation of thymic cells ([2]; oral administration, the same as for i/p): 0.1 µg/kg | Spontaneous proliferation (cpm) M ± SD ([2]; thymic cells, 0.01 μg/kg Tablet, per os): 308 ± 104 cpm | Spontaneous proliferation (cpm) M ± SD ([2]; thymic cells, 0.01 μg/kg per os): 238 ± 64 cpm | Spontaneous proliferation (cpm) M ± SD ([2]; thymic cells, 0.1 μg/kg Tablet, per os): 395 ± 136 cpm | Spontaneous proliferation (cpm) M ± SD ([2]; thymic cells, 0.1 μg/kg i/p, Table 4): 268 ± 114 cpm | Spontaneous proliferation (cpm) M ± SD ([2]; thymic cells, 0.1 μg/kg i/p, Table 5): 251 ± 36 cpm | Spontaneous proliferation (cpm) M ± SD ([2]; thymic cells, 0.1 μg/kg per os): 250 ± 75 cpm | Spontaneous proliferation (cpm) M ± SD ([2]; thymic cells, 1.0 μg/kg Tablet, per os): 355 ± 62 cpm | Spontaneous proliferation (cpm) M ± SD ([2]; thymic cells, 1.0 μg/kg i/p, Table 4): 342 ± 83 cpm | Spontaneous proliferation (cpm) M ± SD ([2]; thymic cells, 1.0 μg/kg i/p, Table 5): 555 ± 20 cpm | Spontaneous proliferation (cpm) M ± SD ([2]; thymic cells, 1.0 μg/kg per os): 198 ± 44 cpm | Spontaneous proliferation (cpm) M ± SD ([2]; thymic cells, 10.0 μg/kg Tablet, per os): 317 ± 77 cpm | Spontaneous proliferation (cpm) M ± SD ([2]; thymic cells, 10.0 μg/kg per os): 246 ± 51 cpm | Spontaneous proliferation (cpm) M ± SD ([2]; thymic cells, 100.0 μg/kg per os): 272 ± 98 cpm | Induced proliferation (cpm) M ± SD [2, 5]: 3144 ± 582 cpm | Stimulation index [2, 5]: 10.2 | Induced proliferation (cpm) M ± SD [2, 6]: 6698 ± 1465 cpm | Stimulation index [2, 6]: 28.1 | Induced proliferation (cpm) M ± SD [2, 7]: 9900 ± 2021 cpm | Stimulation index [2, 7]: 25.1 | Induced proliferation (cpm) M ± SD [2, 8]: 14261 ± 1400 cpm | Stimulation index [2, 8]: 53.3 | Induced proliferation (cpm) M ± SD [2, 9]: 9897 ± 678 cpm | Stimulation index [2, 9]: 39.4 | Induced proliferation (cpm) M ± SD [2, 10]: 9754 ± 1633 cpm | Stimulation index [2, 10]: 39.1 | Induced proliferation (cpm) M ± SD [2, 11]: 10248 ± 1913 cpm | Stimulation index [2, 11]: 28.9 | Induced proliferation (cpm) M ± SD [2, 12]: 20995 ± 6425 cpm | Stimulation index [2, 12]: 61.4 | Induced proliferation (cpm) M ± SD [2, 13]: 33418 ± 3490 cpm | Stimulation index [2, 13]: 49.7 | Induced proliferation (cpm) M ± SD [2, 14]: 20658 ± 5873 cpm | Stimulation index [2, 14]: 104.6 | Induced proliferation (cpm) M ± SD [2, 15]: 7675 ± 1456 cpm | Stimulation index [2, 15]: 24.2 | Induced proliferation (cpm) M ± SD [2, 16]: 13905 ± 2443 cpm | Stimulation index [2, 16]: 56.6 | Induced proliferation (cpm) M ± SD [2, 17]: 27589 ± 1331 cpm | Stimulation index [2, 17]: 101.4 | proliferation of cells stimulated by the optimal dose of ConA ([2]; thymic cells, per os or i/p, data not shown): did not significantly change | subpopulation composition of T-cells and expression of their activation markers ([3]; thymic cells and splenocytes ex vivo 72 hours after the last treatment, i/p or per os, data not shown): No significant differences | CD25-positive cells, % ([3]; 0.1 μg/kg Tablet, per os): 0.7% | CD69-positive, % ([3]; 0.1 μg/kg Tablet, per os): 3.35% | CD25-positive cells, % ([3]; 0.1 μg/kg i/p): 0.30% | CD69-positive, % ([3]; 0.1 μg/kg i/p): 2.03% | CD25-positive cells, % ([3]; 1.0 μg/kg Tablet, per os): 0.79% | CD69-positive, % ([3]; 1.0 μg/kg Tablet, per os): 4.61% | CD25-positive cells, % ([3]; 1.0 μg/kg i/p): 1.72% | CD69-positive, % ([3]; 1.0 μg/kg i/p): 7.86% | CD25-positive cells, % ([3]; 10.0 μg/kg Tablet, per os): 0.71% | CD69-positive, % ([3]; 10.0 μg/kg Tablet, per os): 2.24%
